# In patent US20220323406A1, “METHODS AND COMPOSITIONS FOR DIFFERENTIATING STEM CELLS” (Massachusetts Institute of Technology, priority 2019, published 2022):
# Structures can show the parent of a compound that is named as a salt.
# What was measured:
# [1] = system: ENR+CD organoids (ISC to Paneth cell differentiation); experiment: Primary screen: basal (non-stimulated) lysozyme secretion LYZ.NS, 2.5-D 384-well ENR+CD organoid differentiation; type: cell-based, mouse
# Excerpt: (§1) High-throughput screening.
# ENR+CD organoids = experiment: Primary screen: ATP (CellTiter-Glo 3D, CTG) cell number/viability, 2.5-D 384-well ENR+CD organoids; conditions: primary screen; for Z.CTG: standard z score;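 as to all read-outs here: compounds given at plating and again on day 3 over a 6-day differentiation from ENR+CV stem-cell-enriched precursors, ATP measured on day 6, plate median as control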
# [2] = system: ENR+CD organoids (ISC to Paneth cell differentiation); experiment: Primary screen: CCh-stimulated lysozyme secretion LYZ.S, 2.5-D 384-well ENR+CD organoid differentiation; type: cell-based, mouse; conditions: primary screen
# Excerpt: as §1
# [3] = primary screen, dose 0.08 uM, standard z score
# [4] = primary screen, dose 0.40 uM, standard z score
# [5] = primary screen, dose 2.00 uM, standard z score
# [6] = primary screen, dose 10.00 uM, standard z score
# [7] = dose 0.08 uM, FC relative to plate median
# [8] = dose 0.40 uM, FC relative to plate median
# [9] = dose 2.00 uM, FC relative to plate median
# [10] = dose 10.00 uM, FC relative to plate median
# [11] = primary screen; dose 0.08 uM; FC vs plate median
# [12] = primary screen; dose 0.40 uM; FC vs plate median
# [13] = primary screen; dose 2.00 uM; FC vs plate median
# [14] = primary screen; dose 10.00 uM; FC vs plate median
# [15] = dose 0.08 uM, FC vs plate median
# [16] = dose 0.40 uM, FC vs plate median
# [17] = dose 2.00 uM, FC vs plate median
# [18] = dose 10.00 uM, FC vs plate median
# [19] = primary screen, standard z score, dose 0.08 uM
# [20] = primary screen, standard z score, dose 0.40 uM
# [21] = primary screen, standard z score, dose 2.00 uM
# [22] = primary screen, standard z score, dose 10.00 uM
SMILES,"Z.LYZ.NS [1, 3]","Z.LYZ.NS [1, 4]","Z.LYZ.NS [1, 5]","Z.LYZ.NS [1, 6]",Z.CTG (ENR+CD organoids; dose 0.08 uM),Z.CTG (ENR+CD organoids; dose 0.40 uM),Z.CTG (ENR+CD organoids; dose 2.00 uM),Z.CTG (ENR+CD organoids; dose 10.00 uM),"Dose.FC.LYZ.NS ([1]; primary screen, dose 0.08 uM)","Dose.FC.LYZ.NS ([1]; primary screen, dose 0.40 uM)","Dose.FC.LYZ.NS ([1]; primary screen, dose 2.00 uM)","Dose.FC.LYZ.NS ([1]; primary screen, dose 10.00 uM)",Dose.FC.CTG (ENR+CD organoids; dose 0.08 uM),Dose.FC.CTG (ENR+CD organoids; dose 0.40 uM),Dose.FC.CTG (ENR+CD organoids; dose 2.00 uM),Dose.FC.CTG (ENR+CD organoids; dose 10.00 uM),Dose.FC.LYZ.S ([2]; dose 0.08 uM),Dose.FC.LYZ.S ([2]; dose 0.40 uM),Dose.FC.LYZ.S ([2]; dose 2.00 uM),Dose.FC.LYZ.S ([2]; dose 10.00 uM),other results
COc1cc2c(N3CCN(C(=O)Nc4ccc(OC(C)C)cc4)CC3)ncnc2cc1OCCCN1CCCCC1 [Tandutinib (MLN518)],0.828,1.066,1.012,0.407,1.397,0.845,0.856,1.401,,,,,,,,,,,,,"Dose.FC.LYZ.NS ([1]; primary screen, dose 0.08 uM, FC relative to plate median): 0.095 log2 fold change; Dose.FC.LYZ.NS ([1]; primary screen, dose 0.40 uM, FC relative to plate median): 0.122 log2 fold change; Dose.FC.LYZ.NS ([1]; primary screen, dose 2.00 uM, FC relative to plate median): 0.116 log2 fold change; Dose.FC.LYZ.NS ([1]; primary screen, dose 10.00 uM, FC relative to plate median): 0.047 log2 fold change; Dose.FC.CTG (ENR+CD organoids; [7]): 0.585 log2 fold change; Dose.FC.CTG (ENR+CD organoids; [8]): 0.354 log2 fold change; Dose.FC.CTG (ENR+CD organoids; [9]): 0.358 log2 fold change; Dose.FC.CTG (ENR+CD organoids; [10]): 0.586 log2 fold change; Dose.FC.LYZ.S [2, 7]: 0.145 log2 fold change; Dose.FC.LYZ.S [2, 8]: 0.178 log2 fold change; Dose.FC.LYZ.S [2, 9]: 0.093 log2 fold change; Dose.FC.LYZ.S [2, 10]: 0.100 log2 fold change"
C/C(=N\NC(=S)N1CCC1)c1ccccn1 [NSC 319726],0.982,−0.780,−1.323,−1.992,0.316,−0.441,−1.068,−4.555,,,,,,,,,,,,,"Dose.FC.LYZ.NS [1, 11]: 0.113 log2 fold change; Dose.FC.LYZ.NS [1, 12]: −0.090 log2 fold change; Dose.FC.LYZ.NS [1, 13]: −0.152 log2 fold change; Dose.FC.LYZ.NS [1, 14]: −0.229 log2 fold change; Dose.FC.CTG (ENR+CD organoids; [15]): 0.132 log2 fold change; Dose.FC.CTG (ENR+CD organoids; [16]): −0.185 log2 fold change; Dose.FC.CTG (ENR+CD organoids; [17]): −0.447 log2 fold change; Dose.FC.CTG (ENR+CD organoids; [18]): −1.907 log2 fold change; Dose.FC.LYZ.S [2, 15]: 0.060 log2 fold change; Dose.FC.LYZ.S [2, 16]: −0.035 log2 fold change; Dose.FC.LYZ.S [2, 17]: −0.248 log2 fold change; Dose.FC.LYZ.S [2, 18]: −0.327 log2 fold change"
CC(=O)c1cc([N+](=O)[O-])c(Sc2ccc(F)cc2F)s1 [P22077],0.338,−0.041,0.248,−0.487,−0.516,0.117,−0.320,−0.311,,,,,,,,,,,,,"Dose.FC.LYZ.NS [1, 11]: 0.039 log2 fold change; Dose.FC.LYZ.NS [1, 12]: −0.005 log2 fold change; Dose.FC.LYZ.NS [1, 13]: 0.028 log2 fold change; Dose.FC.LYZ.NS [1, 14]: −0.056 log2 fold change; Dose.FC.CTG (ENR+CD organoids; [15]): −0.216 log2 fold change; Dose.FC.CTG (ENR+CD organoids; [16]): 0.049 log2 fold change; Dose.FC.CTG (ENR+CD organoids; [17]): −0.134 log2 fold change; Dose.FC.CTG (ENR+CD organoids; [18]): −0.130 log2 fold change; Dose.FC.LYZ.S [2, 15]: −0.182 log2 fold change; Dose.FC.LYZ.S [2, 16]: 0.065 log2 fold change; Dose.FC.LYZ.S [2, 17]: −0.007 log2 fold change; Dose.FC.LYZ.S [2, 18]: −0.063 log2 fold change"
COCCCC/C(=N\OCCN)c1ccc(C(F)(F)F)cc1 [Fluvoxamine maleate],,,,,,,,,0.074 log2 fold change,0.087 log2 fold change,0.089 log2 fold change,−0.027 log2 fold change,0.115 log2 fold change,0.254 log2 fold change,0.211 log2 fold change,0.138 log2 fold change,0.114 log2 fold change,0.172 log2 fold change,0.108 log2 fold change,0.012 log2 fold change,"Z.LYZ.NS [1, 19]: 0.642; Z.LYZ.NS [1, 20]: 0.756; Z.LYZ.NS [1, 21]: 0.778; Z.LYZ.NS [1, 22]: −0.235"
C[C@H](CS)C(=O)N1CCC[C@H]1C(=O)O [Captopril],,,,,,,,,0.059 log2 fold change,0.035 log2 fold change,0.033 log2 fold change,0.153 log2 fold change,−0.056 log2 fold change,0.108 log2 fold change,0.123 log2 fold change,0.107 log2 fold change,0.049 log2 fold change,0.109 log2 fold change,0.051 log2 fold change,0.077 log2 fold change,"Z.LYZ.NS [1, 19]: 0.511; Z.LYZ.NS [1, 20]: 0.307; Z.LYZ.NS [1, 21]: 0.285; Z.LYZ.NS [1, 22]: 1.330"
Cc1c(-c2ccc(O)cc2)n(Cc2ccc(OCCN3CCCCCC3)cc2)c2ccc(O)cc12 [Bazedoxifene HCl],,,,,,,,,0.159 log2 fold change,0.026 log2 fold change,−0.146 log2 fold change,−0.280 log2 fold change,0.422 log2 fold change,0.365 log2 fold change,−0.780 log2 fold change,−1.148 log2 fold change,0.096 log2 fold change,0.065 log2 fold change,−0.189 log2 fold change,−0.361 log2 fold change,"Z.LYZ.NS (standard z score) ([1]; primary screen, dose 0.08 uM): 1.386; Z.LYZ.NS (standard z score) ([1]; primary screen, dose 0.40 uM): 0.229; Z.LYZ.NS (standard z score) ([1]; primary screen, dose 2.00 uM): −1.267; Z.LYZ.NS (standard z score) ([1]; primary screen, dose 10.00 uM): −2.442"
